{"source": "patent US20260345595A1", "about": "“NOVEL FLUORENE DERIVATIVE COMPOUND AND USE THEREOF” (JD BIOSCIENCE INC., priority 2022, published 2026)", "tested_on": "PDHE1α S293", "assay": "In vitro PDH S293 phosphorylation inhibition, Western blot in HEK293 cells", "format": "cell-based", "conditions": "Homo sapiens, 5 hours", "protocol": "HEK293 cells, which are human embryonic kidney cells, were seeded at a density of 2×10^6 in a 60 mm dish, and cultured for 24 hours. After replacing the medium with a medium comprising 0.5% FBS, the compounds prepared according to Examples 1 to 54 were treated at various concentrations. 5 hours later, the cells were scraped off and collected into a 15 ml conical tube and centrifuged at 1500 rpm for 10 minutes. The supernatant was discarded, the resultant was washed with 1×PBS, and transferred to a 1.5 mL e-tube, followed by centrifugation at 10,000 rpm for 5 minutes. The supernatant was discarded again, a lysis buffer was added, and the cells were lysed on ice for 30 minutes. The cells were vortexed every 10 minutes to completely lyse, and centrifuged again at 10,000 rpm for 15 minutes at 4 °C., and the supernatant was collected. The protein in the supernatant was quantified using BCA technique, and the sample buffer was added to 20 μg of protein and allowed to react at 70 °C. for 5 minutes. The expression of PDHE1α S232, S293, S300, and total PDHE1α proteins was detected by Western blot, and the resulting PDH S293 phosphorylation inhibition is shown in Table 6.", "data": [{"smiles": "CC(C(=O)NNc1ncc(C(F)(F)F)cc1Cl)n1cc(-c2cc(F)cc3c2-c2ccccc2C3(O)C(F)(F)F)cn1", "note": "(centres unmarked) [Compound 32, N′-(3-chloro-5-(trifluoromethyl)pyridin-2-yl)-2-(4-(2-fluoro-9-hydroxy-9-(trifluoromethyl)-9H-fluoren-4-yl)-1H-pyrazol-1-yl)propanehydrazide]", "values": [{"measurement": "inhibition at 1 µM", "result": "≥ 50", "unit": "%"}]}, {"smiles": "COc1cc(-c2cnn(C(C)C(=O)NNc3ncc(C(F)(F)F)cc3Cl)c2)c2c(c1)C(O)(C(F)(F)F)c1ccccc1-2", "note": "(centres unmarked) [Compound 33, N′-(3-chloro-5-(trifluoromethyl)pyridin-2-yl)-2-(4-(9-hydroxy-2-methoxy-9-(trifluoromethyl)-9H-fluoren-4-yl)-1H-pyrazol-1-yl)propanehydrazide]", "values": [{"measurement": "inhibition at 1 µM", "result": "≥ 50", "unit": "%"}]}]}
